Source: patent US10793575B2, “Oxoisoquinoline derivatives” (CARNA BIOSCIENCES, INC., priority 2016, dated 2020)

Test system: OCI-Ly10 cells
Assay: Proliferation-Inhibitory Test Against Diffuse Large-Cell B-Cell Lymphoma OCI-Ly10 Strain
Assay type: cell-based
Details: Homo sapiens, 96 hours, alamarBlue
Experimental: OCI-Ly10 cells were cultured in IMDM medium (Iscove's Modified Dulbecco's Medium, Manufactured by Thermo Fisher Scientific Inc., hereinafter “medium”) containing 20% Fetal bovine serum and 1% penicillin-streptomycin (Nacalai Tesque, Inc.) in a 5% CO2 incubator. OCI-Ly10 cells were seeded to 96-well plate (20000 cells/well), compounds diluted with medium were added with final concentrations of 0.9 nM to 30000 nM (Final DMSO concentration, 0.3%), incubated for 96 hours and alamorBlue reagent (Thermo Fisher Scientific Inc.) was added.

Structure (SMILES)	IC50 [nM]
Nc1nc(-c2cccc(-n3ccc4cc(C5CC5)cc(F)c4c3=O)c2CO)c2cc(-c3ccc(F)cn3)[nH]c2n1 [Example 45, 2-{3-[2-amino-6-(5-fluoropyridin-2-yl)-7H-pyrrolo[2,3-d]pyrimidin-4-yl]-2-(hydroxymethyl)phenyl}-6-cyclopropyl-8-fluoroisoquinolin-1(2H)-one]	134
Nc1nc(-c2cccc(-n3ccc4cc(C5CC5)cc(F)c4c3=O)c2CO)c2cc(-c3cnn(Cc4ccccc4)c3)[nH]c2n1 [Example 58, 2-{3-[2-amino-6-(1-benzyl-1H-pyrazol-4-yl)-7H-pyrrolo[2,3-d]pyrimidin-4-yl]-2-(hydroxymethyl)phenyl}-6-cyclopropyl-8-fluoroisoquinolin-1(2H)-one]	27
Nc1nc(-c2cccc(-n3ccc4cc(C5CC5)cc(F)c4c3=O)c2CO)c2cc(-c3ccc(N4CCOCC4)nc3)[nH]c2n1 [Example 48, 2-{3-[2-amino-6-(6-morpholinopyridin-3-yl)-7H-pyrrolo[2,3-d]pyrimidin-4-yl]-2-(hydroxymethyl)phenyl}-6-cyclopropyl-8-fluoroisoquinolin-1(2H)-one]	54
CN(C)c1ccc(-c2cc3c(-c4cccc(-n5ccc6cc(C7CC7)cc(F)c6c5=O)c4CO)nc(N)nc3[nH]2)cn1 [Example 59, 2-(3-{2-amino-6-[6-(dimethylamino)pyridin-3-yl]-7H-pyrrolo[2,3-d]pyrimidin-4-yl}-2-(hydroxymethyl)phenyl)-6-cyclopropyl-8-fluoroisoquinolin-1(2H)-one]	63
COCCNc1cncc(-c2cc3c(-c4cccc(-n5ccc6cc(C7CC7)cc(F)c6c5=O)c4CO)nc(N)nc3[nH]2)c1 [Example 60, 2-[3-(2-amino-6-{5-[(2-methoxyethyl)amino]pyridin-3-yl}-7H-pyrrolo[2,3-d]pyrimidin-4-yl)-2-(hydroxymethyl)phenyl}-6-cyclopropyl-8-fluoroisoquinolin-1(2H)-one]	64
CC(C)n1cc(-c2cc3c(-c4cccc(-n5ccc6cc(C7CC7)cc(F)c6c5=O)c4CO)nc(N)nc3[nH]2)cn1 [Example 63, 2-{3-[2-amino-6-(1-isopropyl-1H-pyrazol-4-yl)-7H-pyrrolo[2,3-d]pyrimidin-4-yl]-2-(hydroxymethyl)phenyl}-6-cyclopropyl-8-fluoroisoquinolin-1(2H)-one]	16
Nc1nc(-c2cccc(-n3ccc4cc(C5CC5)cc(F)c4c3=O)c2CO)c2cc(-c3cc(F)cc(F)c3)[nH]c2n1 [Example 44, 2-{3-[2-amino-6-(3,5-difluorophenyl)-7H-pyrrolo[2,3-d]pyrimidin-4-yl]-2-(hydroxymethyl)phenyl}-6-cyclopropyl-8-fluoroisoquinolin-1(2H)-one]	885
CN1CCN(Cc2ccc(-c3cc4c(-c5cccc(-n6ccc7cc(C8CC8)cc(F)c7c6=O)c5CO)nc(N)nc4[nH]3)cc2)CC1=O [Example 55, 2-[3-(2-amino-6-{4-[(4-methyl-3-oxopiperazin-1-yl)methyl]phenyl}-7H-pyrrolo[2,3-d]pyrimidin-4-yl)-2-(hydroxymethyl)phenyl]-6-cyclopropyl-8-fluoroisoquinolin-1(2H)-one]	13
COc1cc(-c2cc3c(-c4cccc(-n5ccc6cc(C7CC7)cc(F)c6c5=O)c4CO)nc(N)nc3[nH]2)ccn1 [Example 49, 2-{3-[2-amino-6-(2-methoxypyridin-4-yl)-7H-pyrrolo[2,3-d]pyrimidin-4-yl]-2-(hydroxymethyl)phenyl}-6-cyclopropyl-8-fluoroisoquinolin-1(2H)-one]	88
Nc1nc(-c2cccc(-n3ccc4cc(C5CC5)cc(F)c4c3=O)c2CO)c2cc(-c3cncc(F)c3)[nH]c2n1 [Example 46, 2-{3-[2-amino-6-(5-fluoropyridin-3-yl)-7H-pyrrolo[2,3-d]pyrimidin-4-yl]-2-(hydroxymethyl)phenyl}-6-cyclopropyl-8-fluoroisoquinolin-1(2H)-one]	564

More lines, now with the values ahead:

IC50 [nM]	Structure (SMILES)
276	COc1ccc(-c2cc3c(-c4cccc(-n5ccc6cc(C7CC7)cc(F)c6c5=O)c4CO)nc(N)nc3[nH]2)cn1 [Example 65, 2-{3-[2-amino-6-(6-methoxypyridin-3-yl)-7H-pyrrolo[2,3-d]pyrimidin-4-yl]-2-(hydroxymethyl)phenyl}-6-cyclopropyl-8-fluoroisoquinolin-1(2H)-one]
24	CN(C)CC(=O)N1CC=C(c2cc3c(-c4cccc(-n5ccc6cc(C7CC7)cc(F)c6c5=O)c4CO)nc(N)nc3[nH]2)CC1 [Example 85, 2-[3-(2-amino-6-{1-[2-(dimethylamino)acetyl]-1,2,3,6-tetrahydropyridin-4-yl}-7H-pyrrolo[2,3-d]pyrimidin-4-yl)-2-(hydroxymethyl)phenyl]-6-cyclopropyl-8-fluoroisoquinolin-1(2H)-one]
127	CC(C)(C)n1cc(-c2cc3c(-c4cccc(-n5ccc6cc(C7CC7)cc(F)c6c5=O)c4CO)nc(N)nc3[nH]2)cn1 [Example 72, 2-(3-{2-amino-6-[1-(tert-butyl)-1H-pyrazol-4-yl]-7H-pyrrolo[2,3-d]pyrimidin-4-yl}-2-(hydroxymethyl)phenyl)-6-cyclopropyl-8-fluoroisoquinolin-1(2H)-one]
4	Nc1nc(-c2cccc(-n3ccc4cc(C5CC5)cc(F)c4c3=O)c2CO)c2cc(C3=CCN(C(=O)N4CCOCC4)CC3)[nH]c2n1 [Example 70, 2-(3-{2-amino-6-[1-(morpholine-4-carbonyl)-1,2,3,6-tetrahydropyridin-4-yl]-7H-pyrrolo[2,3-d]pyrimidin-4-yl}-2-(hydroxymethyl)phenyl)-6-cyclopropyl-8-fluoroisoquinolin-1(2H)-one]
24	Nc1nc(-c2cccc(-n3ccc4cc(C5CC5)cc(F)c4c3=O)c2CO)c2cc(C3=CCSCC3)[nH]c2n1 [Example 82, 2-{3-[2-amino-6-(3,6-dihydro-2H-thiopyran-4-yl)-7H-pyrrolo[2,3-d]pyrimidin-4-yl]-2-(hydroxymethyl)phenyl}-6-cyclopropyl-8-fluoroisoquinolin-1(2H)-one]
70	CC1(C)CCCN(Cc2ccc(-c3cc4c(-c5cccc(-n6ccc7cc(C8CC8)cc(F)c7c6=O)c5CO)nc(N)nc4[nH]3)cc2)C1 [Example 80, 2-[3-(2-amino-6-{4-[(3,3-dimethylpiperidin-1-yl)methyl]phenyl}-7H-pyrrolo[2,3-d]pyrimidin-4-yl)-2-(hydroxymethyl)phenyl]-6-cyclopropyl-8-fluoroisoquinolin-1(2H)-one]
13	Nc1nc(-c2cccc(-n3ccc4cc(C5CC5)cc(F)c4c3=O)c2CO)c2cc(C3=CCN(C(=O)CN4CCOCC4)CC3)[nH]c2n1 [Example 86, 2-(3-{2-amino-6-[1-(2-morpholinoacetyl)-1,2,3,6-tetrahydropyridin-4-yl]-7H-pyrrolo[2,3-d]pyrimidin-4-yl}-2-(hydroxymethyl)phenyl)-6-cyclopropyl-8-fluoroisoquinolin-1(2H)-one]
10	CC(=O)N1CCN(Cc2ccc(-c3cc4c(-c5cccc(-n6ccc7cc(C8CC8)cc(F)c7c6=O)c5CO)nc(N)nc4[nH]3)cc2)CC1 [Example 75, 2-[3-(6-{4-[(4-acetylpiperazin-1-yl)methyl]phenyl}-2-amino-7H-pyrrolo[2,3-d]pyrimidin-4-yl)-2-(hydroxymethyl)phenyl]-6-cyclopropyl-8-fluoroisoquinolin-1(2H)-one]
30	Nc1nc(-c2cccc(-n3ccc4cc(C5CC5)cc(F)c4c3=O)c2CO)c2cc(-c3ccc(CN4CCN(CC(F)(F)F)CC4)cc3)[nH]c2n1 [Example 79, 2-{3-[2-amino-6-(4-{[4-(2,2,2-trifluoroethyl)piperazin-1-yl]methyl}phenyl)-7H-pyrrolo[2,3-d]pyrimidin-4-yl]-2-(hydroxymethyl)phenyl}-6-cyclopropyl-8-fluoroisoquinolin-1(2H)-one]
61	Nc1nc(-c2cccc(-n3ccc4cc(C5CC5)cc(F)c4c3=O)c2CO)c2cc(C3=CCN(CC4CC4)CC3)[nH]c2n1 [Example 92, 2-(3-{2-amino-6-[1-(cyclopropylmethyl)-1,2,3,6-tetrahydropyridin-4-yl]-7H-pyrrolo[2,3-d]pyrimidin-4-yl}-2-(hydroxymethyl)phenyl)-6-cyclopropyl-8-fluoroisoquinolin-1(2H)-one]
82	Nc1nc(-c2cccc(-n3ccc4cc(C5CC5)cc(F)c4c3=O)c2CO)c2cc(-c3ccc(CN4CCSC4)cc3)[nH]c2n1 [Example 67, 2-(3-{2-amino-6-[4-(thiazolidin-3-ylmethyl)phenyl]-7H-pyrrolo[2,3-d]pyrimidin-4-yl)-2-(hydroxymethyl)phenyl}-6-cyclopropyl-8-fluoroisoquinolin-1(2H)-one]
115	CC(C)(C)OC(=O)N1CC=C(c2cc3c(-c4cccc(-n5ccc6cc(C7CC7)cc(F)c6c5=O)c4CO)nc(N)nc3[nH]2)CC1 [Example 68, tert-butyl 4-{2-amino-4-[3-(6-cyclopropyl-8-fluoro-1-oxoisoquinolin-2(1H)-yl)-2-(hydroxymethyl)phenyl]-7H-pyrrolo[2,3-d]pyrimidin-6-yl}-5,6-dihydropyridine-1(2H)-carboxylate]
13	CC(C)S(=O)(=O)N1CC=C(c2cc3c(-c4cccc(-n5ccc6cc(C7CC7)cc(F)c6c5=O)c4CO)nc(N)nc3[nH]2)CC1 [Example 90, 2-(3-{2-amino-6-[1-(isopropylsulfonyl)-1,2,3,6-tetrahydropyridin-4-yl]-7H-pyrrolo[2,3-d]pyrimidin-4-yl}-2-(hydroxymethyl)phenyl)-6-cyclopropyl-8-fluoroisoquinolin-1(2H)-one]
47	CC1CN(Cc2ccc(-c3cc4c(-c5cccc(-n6ccc7cc(C8CC8)cc(F)c7c6=O)c5CO)nc(N)nc4[nH]3)cc2)CC(C)O1 (stereo not drawn) [Example 76, 2-[3-(2-amino-6-{4-[(2,6-dimethylmorpholino)methyl]phenyl}-7H-pyrrolo[2,3-d]pyrimidin-4-yl)-2-(hydroxymethyl)phenyl]-6-cyclopropyl-8-fluoroisoquinolin-1(2H)-one]
